The values that follow come from US8207172B2 (Bayer Intellectual Property GmbH, priority 2004, dated 2012).

Structures can show the parent of a compound that is named as a salt.

Test [1] concerns A431 cells (human epidermoid carcinoma). Nature of the test: In vitro tumor cell proliferation assay (Cell Titer-Glo luminescent cell viability), A431. In kind it is cell-based. The settings on record: A-431, 72 h, 72 hours of drug exposure, ATP luminescence readout, read-out: IC50, anti-proliferative activity (inhibition of cell proliferation). The source says:
(§1) In vitro Tumor Cell Proliferation Assay
(§2) The tumor cell proliferation assay used to test the compounds of the present invention involves a readout called Cell Titer-Glow® Luminescent Cell Viability Assay developed by Promega® (Cunningham, B A “A Growing Issue: Cell Proliferation Assays, Modern kits ease quantification of cell growth” The Scientist 2001, 15(13), 26, and Crouch, S P et al., “The use of ATP bioluminescence as a measure of cell proliferation and cytotoxicity” Journal of Immunological Methods 1993, 160, 81-88), that measures inhibition of cell proliferation. Generation of a luminescent signal corresponds to the amount of ATP present, which is directly proportional to the number of metabolically active (proliferating) cells.
(§3) A431cells (human epidermoid carcinoma, ATCC […]) and BT474 (human breast carcinoma, ATCC […]) were plated at a density of 2.5×10^3 cells/well in 96 well black-clear bottom tissue culture plates in RPMI media with 10% Fetal Bovine Serum and incubated at 37° C. Twenty-four hours later, test compounds are added at a final concentration range from as high […] to as low 64 pM depend on the activities of the tested compounds in serial dilutions at a final DMSO concentration of 0.1%. Cells were incubated for 72 hours at 37° C. in complete growth media after addition of the test compound. After 72 hours of drug exposure, the plates were equilibrated to room temperature for approximately 30 min. Then, using a Promega Cell Titer Glo Luminescent® assay kit, lysis buffer containing 100 microliters of the enzyme luciferase and its substrate, luciferin mixture, was added to each well. The plates were mixed for 2 min on orbital shaker to ensure cell lysis and incubated for 10 min at room temperature to stabilize luminescence signal. The samples were read on VICTOR 2 using Luminescence protocol, and analyzed with Analyze5 software to generate IC50 values.

Test [2] concerns BT474 (human breast carcinoma). Kind of test: In vitro tumor cell proliferation assay (Cell Titer-Glo luminescent cell viability), BT474. In kind it is cell-based. The settings on record: BT-474, 72 h, BT474 cells, 72 hours of drug exposure, ATP luminescence readout, read-out: IC50, anti-proliferative activity (inhibition of cell proliferation).
Excerpt: as §1, §2, §3
(In ATP-based viability assays light output follows the ATP content of the culture.)

For `CNC(=O)Cn1ncc2c1CCc1c-2sc2ncnc(Nc3ccc(OCc4cccc(F)c4)c(Cl)c3)c12` [Example 196, 2-[6-({3-chloro-4-[(3-fluorobenzyl)oxy]phenyl}amino)-4,5-dihydro-3H-pyrimido[5′,4′:4,5]thieno[2,3-e]indazol-3-yl]-N-methylacetamide], the IC50 is ≤ 50 µM in test [1] and ≤ 1 µM in test [2].

For `CN1CCN(CCn2cc3c(n2)CCc2c-3sc3ncnc(Nc4ccc(N5CCOCC5)c(Cl)c4)c23)CC1` [Example 48, N-(3-chloro-4-morpholin-4-ylphenyl)-2-[2-(4-methylpiperazin-1-yl)ethyl]-4,5-dihydro-2H-pyrimido[5′,4′:4,5]thieno[2,3-e]indazol-6-amine], the IC50 in test [1] is ≤ 50 µM; in test [2], ≤ 5 µM.

As for `CN1CCN(CCn2cc3c(n2)CCc2c-3sc3ncnc(Nc4cc(Cl)c(Cl)cc4F)c23)CC1` [Example 344, N-(4,5-dichloro-2-fluorophenyl)-2-[2-(4-methylpiperazin-1-yl)ethyl]-4,5-dihydro-2H-pyrimido[5′,4′:4,5]thieno[2,3-e]indazol-6-amine trifluoroacetate], the IC50 in test [1] and in test [2] was ≤ 5 µM throughout.

With `OC[C@H](O)Cn1cc2c(n1)CCc1c-2sc2ncnc(Nc3ccc(F)c(Cl)c3)c12` [Example 44, (R)-3-[6-(3-Chloro-4-fluoro-phenylamino)-4,5-dihydro-10-thia-2,3,7,9-tetraaza-cyclopenta[a]fluoren-2-yl}-propane-1,2-diol], the IC50 in test [1] is ≤ 5 µM; in test [2], ≤ 1 µM.

Take `NS(=O)(=O)OCCn1cc2c(n1)CCc1c-2sc2ncnc(Nc3ccc(OCc4cccc(F)c4)c(Cl)c3)c12` [Example 311, 2-[6-({3-chloro-4-[(3-fluorobenzyl)oxy]phenyl}amino)-4,5-dihydro-2H-pyrimido[5′,4′:4,5]thieno[2,3-e]indazol-2-yl]ethyl sulfamate]: the IC50 is ≤ 50 µM in test [1] and ≤ 1 µM in test [2].

In the case of `Fc1cccc(COc2ccc(Nc3ncnc4sc5c(c34)CCc3nn(CCN4CCOCC4)cc3-5)cc2Cl)c1` [Example 63, N-{3-chloro-4-[(3-fluorobenzyl)oxy]phenyl}-2-(2-morpholin-4-ylethyl)-4,5-dihydro-2H-pyrimido[5′,4′:4,5]thieno[2,3-e]indazol-6-amine], the IC50 was ≤ 5 µM in test [1] and ≤ 1 µM in test [2].

Take `CCNC[C@@H](O)Cn1ncc2c1CCc1c-2sc2ncnc(Nc3ccc(OCc4cccc(F)c4)c(Cl)c3)c12` [Example 169, (2R)-1-[6-({3-chloro-4-[(3-fluorobenzyl)oxy]phenyl}amino)-4,5-dihydro-3H-pyrimido[5′,4′:4,5]thieno[2,3-e]indazol-3-yl]-3-(ethylamino)propan-2-ol trifluoroacetate (salt)]: the IC50 is ≤ 50 µM in test [1] and ≤ 1 µM in test [2].

For `CN1CCN(CCn2cc3c(n2)CCc2c-3sc3ncnc(Nc4ccc(OCc5cccc(C#N)c5)c(Cl)c4)c23)CC1` [Example 336, 3-{[2-chloro-4-({2-{2-(4-methylpiperazin-1-yl)ethyl]-4,5-dihydro-2H-pyrimido[5′,4′:4,5]thieno[2,3-e]indazol-6-yl}amino)phenoxy]methyl} benzonitrile], the IC50 in test [1] was ≤ 5 µM; in test [2], ≤ 1 µM.

With `CN(C)CCNC(=O)Cn1ncc2c1CCc1c-2sc2ncnc(Nc3ccc(OCc4cccc(F)c4)c(Cl)c3)c12` [Example 193, 2-[6-({3-chloro-4-[(3-fluorobenzyl)oxy]phenyl}amino)-4,5-dihydro-3H-pyrimido[5′,4′:4,5]thieno[2,3-e]indazol-3-yl]-N-[2-(dimethylamino)ethyl]acetamide], the figures for the IC50 in test [1] and in test [2] were ≤ 50 µM and ≤ 1 µM, respectively.

`Fc1ccc(Nc2ncnc3sc4c(c23)CCc2nn(CCNCCN3CCCC3)cc2-4)cc1Cl` [Example 18, N-(3-chloro-4-fluorophenyl)-2-{2-[(2-pyrrolidin-1-ylethyl)amino]ethyl}-4,5-dihydro-2H-pyrimido[5′,4′:4,5]thieno[2,3-e]indazol-6-amine]: the IC50 in test [1] and in test [2] was ≤ 50 µM throughout.

With `O=C(Cn1ncc2c1CCc1c-2sc2ncnc(Nc3ccc(OCc4cccc(F)c4)c(Cl)c3)c12)Nc1cccnc1` [Example 210, 2-[6-({3-chloro-4-[(3-fluorobenzyl)oxy]phenyl}amino)-4,5-dihydro-3H-pyrimido[5′,4′:4,5]thieno[2,3-e]indazol-3-yl]-N-pyridin-3-ylacetamide], the IC50 in test [1] is ≤ 5 µM; in test [2], ≤ 1 µM.

Take `OC1CCN(CCn2cc3c(n2)CCc2c-3sc3ncnc(Nc4ccc5c(cnn5Cc5cccc(F)c5)c4)c23)C1` (stereo not drawn) [Example 286, 1-[2-(6-{[1-(3-fluorobenzyl)-1H-indazol-5-yl]amino}-4,5-dihydro-2H-pyrimido[5′,4′:4,5]thieno[2,3-e]indazol-2-yl)ethyl]pyrrolidin-3-ol]: the IC50 in test [1] was ≤ 5 µM; in test [2], ≤ 1 µM.

Regarding `COCCN1CCN(C(=O)Cn2ncc3c2CCc2c-3sc3ncnc(Nc4ccc(OCc5cccc(F)c5)c(Cl)c4)c23)CC1` [Example 203, N-{3-chloro-4-[(3-fluorobenzyl)oxy]phenyl}-3-{2-[4-(2-methoxyethyl)piperazin-1-yl]-2-oxoethyl}-4,5-dihydro-3H-pyrimido[5′,4′:4,5]thieno[2,3-e]indazol-6-amine], the IC50 was ≤ 50 µM in test [1] and ≤ 1 µM in test [2].

Turning to `OCCNCCn1ncc2c1CCc1c-2sc2ncnc(Nc3ccc4c(cnn4Cc4cccc(F)c4)c3)c12` [Example 300, 2-{[2-(6-{[1-(3-fluorobenzyl)-1H-indazol-5-yl]amino}-4,5-dihydro-3H-pyrimido[5′,4′:4,5]thieno[2,3-e]indazol-3-yl)ethyl]amino}ethanol], the IC50 is ≤ 5 µM in test [1] and ≤ 1 µM in test [2].

For `COCCN(CCOC)C[C@@H](O)Cn1ncc2c1CCc1c-2sc2ncnc(Nc3ccc(OCc4cccc(F)c4)c(Cl)c3)c12` [Example 164, (2R)-1-[bis(2-methoxyethyl)amino]-3-[6-({3-chloro-4-[(3-fluorobenzyl)oxy]phenyl}amino)-4,5-dihydro-3H-pyrimido[5′,4′:4,5]thieno[2,3-e]indazol-3-yl]propan-2-ol trifluoroacetate (salt)], the IC50 in test [1] was ≤ 50 µM; in test [2], ≤ 5 µM.

For `OCCn1cc2c(n1)CCc1c-2sc2ncnc(Nc3ccc(F)c(Cl)c3)c12` [Example 1, 2-{6-[(3-chloro-4-fluorophenyl)amino]-4,5-dihydro-2H-pyrimido[5′,4′:4,5]thieno[2,3-e]indazol-2-yl}ethanol], the figures for the IC50 in test [1] and in test [2] were ≤ 5 µM and ≤ 1 µM, respectively.

In the case of `O[C@H](CN1CC[C@H](O)C1)Cn1cc2c(n1)CCc1c-2sc2ncnc(Nc3ccc(OCc4cccc(F)c4)c(Cl)c3)c12` [Example 150, (3S)-1-{(2R)-3-[6-({3-chloro-4-[(3-fluorobenzyl)oxy]phenyl}amino)-4,5-dihydro-2H-pyrimido[5′,4′:4,5]thieno[2,3-e]indazol-2-yl]-2-hydroxypropyl}pyrrolidin-3-ol trifluoroacetate (salt)], the figures for the IC50 in test [1] and in test [2] were ≤ 50 µM and ≤ 1 µM, respectively.

As to `CC(C)NC[C@@H](O)Cn1ncc2c1CCc1c-2sc2ncnc(Nc3ccc(OCc4cccc(F)c4)c(Cl)c3)c12` [Example 163, (2R)-1-[6-({3-chloro-4-[(3-fluorobenzyl)oxy]phenyl}amino)-4,5-dihydro-3H-pyrimido[5′,4′:4,5]thieno[2,3-e]indazol-3-yl]-3-(isopropylamino)propan-2-ol trifluoroacetate (salt)], the IC50 in test [1] was ≤ 50 µM; in test [2], ≤ 5 µM.

Regarding `c1ccc(Cn2ncc3cc(Nc4ncnc5sc6c(c45)CCc4n[nH]cc4-6)ccc32)cc1` [Example 309, N-(1-benzyl-1H-indazol-5-yl)-4,5-dihydro-2H-pyrimido[5′,4′:4,5]thieno[2,3-e]indazol-6-amine], the IC50 in test [1] is ≤ 5 µM; in test [2], ≤ 1 µM.

As to `Fc1cccc(COc2ccc(Nc3ncnc4sc5c(c34)CCc3c-5cnn3CCN3CCOCC3)cc2Cl)c1` [Example 86, N-{3-chloro-4-[(3-fluorobenzyl)oxy]phenyl}-3-(2-morpholin-4-ylethyl)-4,5-dihydro-3H-pyrimido[5′,4′:4,5]thieno[2,3-e]indazol-6-amine], the figures for the IC50 in test [1] and in test [2] were ≤ 50 µM and ≤ 1 µM, respectively.

On to `OCCn1ncc2c1CCc1c-2sc2ncnc(Nc3ccc(OCc4ccccn4)c(Cl)c3)c12` [Example 100, 2-(6-{[3-chloro-4-(pyridin-2-ylmethoxy)phenyl]amino}-4,5-dihydro-2H-pyrimido[5′,4′:4,5]thieno[2,3-e]indazol-3-yl)ethanol], for which the values for the IC50 in test [1] and in test [2] were ≤ 5 µM and ≤ 1 µM, respectively.
